From PubChem BioAssay (NCI)
Several values for one entry are separate records, joined by “and”; a condition that tells them apart may be missing. Identical values can stand only once.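 Where inhibition never reached the appropriate level, the endpoint shown equals the highest concentration tested. Otherwise, values were interpolated linearly from a five-concentration, 48-hour dose response in 96-well plates. GI50 marks 50% less growth. TGI: concentration producing complete growth inhibition.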

Tests used:
Assay in all cases: inhibition of tumour cell growth, NCI panel, 48 h
[1] = test system: SNB-75 CNS
[2] = test system: MDA-MB-435
[3] = test system: SNB-19 CNS
[4] = test system: SR leukemia
[5] = test system: SF-539 CNS
[6] = test system: 786-0 renal
[7] = test system: OVCAR-5 ovarian
[8] = test system: EKVX NSCLC
[9] = test system: HCC-2998 colon
[10] = test system: HOP-62 NSCLC

| Compound | GI50 [1] | TGI [1] | GI50 [2] | TGI [2] | GI50 [3] | TGI [3] | GI50 [4] | TGI [4] | GI50 [5] | TGI [5] | GI50 [6] | TGI [6] | GI50 [7] | TGI [7] | GI50 [8] [µM] | TGI [8] [µM] | GI50 [9] | TGI [9] | TGI [10] | GI50 [10] |
| --- | --- | --- | --- | --- | --- | --- | --- | --- | --- | --- | --- | --- | --- | --- | --- | --- | --- | --- | --- | --- |
| CO[C@@H]1CC[C@]2(C)OC[C@H](C)[C@@H]3C[C@@H](C)[C@@H](OC(C)=O)[C@@H]4[C@H]3[C@@H]2O[C@H]4C[C@@]1(C)O | > 100 µM | > 100 µM | > 100 µM | > 100 µM | > 100 µM | > 100 µM | > 100 µM | > 100 µM | > 100 µM | > 100 µM | > 100 µM | > 100 µM | > 100 µM | > 100 µM | > 100 | > 100 | > 100 µM | > 100 µM |  |  |
| COC(=O)c1c(C)cc(OC)c(C/C=C(\C)CCCc2coc(C=C(C)C)c2)c1OC |  | > 100 µM |  | > 100 µM |  | > 100 µM |  | > 100 µM |  | > 100 µM |  | > 100 µM |  | > 100 µM |  | > 100 |  | > 100 µM | > 100 µM |  |
| CCn1cc(-c2ccnc3[nH]c(-c4cccc(CN(C)C)c4)cc23)c(-c2ccc(NC(=O)N(C)C)cc2)n1 | 0.217 µM and 0.461 µM | 2.38 µM and 3.42 µM | 4.77 µM and > 10 µM | 21.4 µM and > 10 µM | 10 µM and > 10 µM | 45 µM and > 10 µM | 0.122 µM and 0.031 µM | 6.58 µM and 3.28 µM | 0.418 µM and 1.38 µM | 13.3 µM and > 10 µM | 2.79 µM and 2.59 µM | 20.3 µM and > 10 µM | 1.56 µM and 4.74 µM | 14.6 µM and > 10 µM | 3.87 | > 10 | 7.29 µM and > 10 µM | 21.5 µM and > 10 µM | 14.4 µM and > 10 µM | 0.385 µM and 1.28 µM |
| C[C@H](CCOc1cccc(CC(=O)O)c1)N(Cc1cccc(C(F)(F)F)c1Cl)CC(c1ccccc1)c1ccccc1 | 9.83 µM | 22 µM | 7.02 µM | 20.2 µM | 6.25 µM | 19.8 µM | 5.51 µM | 51.6 µM | 6.14 µM | 20.4 µM | 5.54 µM | 19.4 µM | 13.4 µM | 28.1 µM | 4.04 | 19.1 | 5.15 µM | 18 µM | 26.4 µM | 6.26 µM |
| CN(C)CCN1CCC(Cc2ccccc2)CC1 | > 80 µM | > 80 µM | > 80 µM | > 80 µM | > 80 µM | > 80 µM | 67.3 µM | > 80 µM | > 80 µM | > 80 µM | > 80 µM | > 80 µM | > 80 µM | > 80 µM | > 80 | > 80 | > 80 µM | > 80 µM | > 80 µM | > 80 µM |
| COc1ccc(/C=C\c2cc(OC)c(OC)c(OC)c2)cc1OCC(=O)O |  | > 58.7 µM |  | 3.27 µM |  | > 45.6 µM |  | > 100 µM |  | 11.5 µM |  | > 100 µM |  | > 100 µM |  | > 100 |  | > 100 µM | > 100 µM |  |
| NC(=O)c1cc(I)ccc1NC(=O)/C=C/c1ccccc1 | 0.316 µM | 8.68 µM | 0.192 µM | 0.445 µM | 0.645 µM | 13.7 µM | 0.419 µM |  | 0.36 µM | 1.53 µM | 1.32 µM | > 68.1 µM | 3.17 µM | > 51.8 µM | 0.787 | > 68.8 | 1.38 µM | 30.9 µM | 23.8 µM | 1.12 µM |
| COc1nc(=O)n(C2C=CC(=O)O2)cc1F (stereo not drawn) | 14.3 µM | 43.1 µM | 5.23 µM | 27.6 µM | 22.3 µM | 57 µM | 1.87 µM | 5.86 µM | 2.22 µM | 5.77 µM | 12.1 µM | 25.1 µM | 15.2 µM | 28.6 µM | 11.3 | > 100 | 12.9 µM | 25.5 µM | 81.2 µM | 29.7 µM |
| O=C(O)c1ccc(CNCc2ccccc2)cc1 |  |  |  | > 100 µM |  | > 100 µM |  | > 100 µM |  | > 100 µM |  | > 100 µM |  | > 100 µM |  | > 100 |  |  | > 100 µM |  |
| O=c1[nH]c(O)c(C=Nc2ccc(-c3nc4ccccc4o3)cc2)c(=O)[nH]1 | > 100 µM | > 100 µM | 33.3 µM | > 100 µM | > 100 µM | > 100 µM | 44.5 µM | > 100 µM | 27.4 µM | 62.7 µM | 32.9 µM | > 100 µM | > 100 µM | > 100 µM | > 100 | > 100 |  |  | > 100 µM | > 100 µM |
| C=CC12CCN(CC1)C(C(O)c1ccnc3ccc(OC)cc13)C2 (stereo not drawn) | 95.3 µM | > 100 µM | > 100 µM | > 100 µM | > 100 µM | > 100 µM | > 100 µM | > 100 µM | > 100 µM | > 100 µM | > 100 µM | > 100 µM | > 100 µM | > 100 µM | > 100 | > 100 | > 100 µM | > 100 µM | > 100 µM | > 100 µM |
| O=C(Nc1nc(-c2c[nH]c3ccccc23)cs1)c1n[nH]c(=O)c2ccccc12 | 16.2 µM | > 67.8 µM | 3.96 µM | > 100 µM | > 34.5 µM | > 75 µM | 1.61 µM |  | 1.68 µM | > 57.6 µM | 1.48 µM | > 47.5 µM | 73 µM | > 100 µM | 51.3 | > 100 | 18.1 µM | > 100 µM | 26.6 µM | 3.72 µM |
| COC(=O)C1=CN(CC2=CC(=O)C(C)=CC2=O)C=C(C(=O)OC)C1c1ccccc1OC | > 100 µM | > 100 µM | 21.8 µM | > 53.7 µM | > 54.9 µM | > 100 µM | 4.01 µM | 19.6 µM | 21.2 µM | 60.3 µM | 15.1 µM | 28.9 µM | 19.7 µM | 34.9 µM | 28.8 | > 100 | 15.5 µM | 28.9 µM | > 51 µM | 23.5 µM |
| CCSc1nc(N=Cc2ccccc2O)c2cn[nH]c2n1 |  |  | 19.7 µM | 72.8 µM | 56.1 µM | > 100 µM | 7.31 µM | > 100 µM | 34.2 µM | > 100 µM | 41.8 µM | > 100 µM | 21.1 µM | 66.9 µM | 47.2 | > 100 |  |  | > 100 µM | 54.5 µM |
